Experimental data reported in US20130116241A1, “NOVEL INHIBITOR COMPOUNDS OF PHOSPHODIESTERASE TYPE 10A” (AbbVie Inc., priority 2011, published 2013).
Counter-ions that a name gives are not always drawn.

target: human PDE10A (UniProt Q9Y233); assay: Measurement of PDE activity (recombinant enzyme, HTRF cAMP kit); format: biochemical; conditions: Table 1, substrate 20 nM for PDE10, 60 minutes at 29 C, read-out: IC50
Procedure, shortened: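 HTRF detection of cAMP left after hydrolysis, expressed as percent of uninhibited control to derive IC50. Reaction: serially diluted inhibitor mixed with recombinant enzyme, started with 20 nM cAMP, 60 min at 29 °C in Tris-HCl pH 7.5 buffer containing MgCl2 and BSA.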

Chain of human PDE10A (Q9Y233 290-1055 limits assumed): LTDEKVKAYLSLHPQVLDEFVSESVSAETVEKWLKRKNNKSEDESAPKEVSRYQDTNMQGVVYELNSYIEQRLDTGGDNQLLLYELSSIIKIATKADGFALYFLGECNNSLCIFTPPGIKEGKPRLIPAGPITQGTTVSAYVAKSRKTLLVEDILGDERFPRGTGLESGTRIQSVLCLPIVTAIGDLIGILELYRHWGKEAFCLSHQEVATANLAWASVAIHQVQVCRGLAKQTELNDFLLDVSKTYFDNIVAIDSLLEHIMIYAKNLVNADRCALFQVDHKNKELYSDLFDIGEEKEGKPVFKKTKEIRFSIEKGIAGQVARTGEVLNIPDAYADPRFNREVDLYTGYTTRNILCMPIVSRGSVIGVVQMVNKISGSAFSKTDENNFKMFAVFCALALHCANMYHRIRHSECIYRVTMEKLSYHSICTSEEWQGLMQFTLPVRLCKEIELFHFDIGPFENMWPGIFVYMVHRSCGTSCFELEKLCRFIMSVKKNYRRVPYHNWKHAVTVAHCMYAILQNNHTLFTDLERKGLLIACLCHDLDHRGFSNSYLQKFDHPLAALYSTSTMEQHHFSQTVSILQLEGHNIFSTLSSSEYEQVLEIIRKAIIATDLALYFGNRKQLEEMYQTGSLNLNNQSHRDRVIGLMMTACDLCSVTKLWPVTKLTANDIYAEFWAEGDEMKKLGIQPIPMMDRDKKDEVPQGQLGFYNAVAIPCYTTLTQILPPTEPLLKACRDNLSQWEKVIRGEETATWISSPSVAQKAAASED

Structure (SMILES)	IC50
COc1cnccc1-c1cccc2cnn(CCc3cn4ccccc4n3)c(=O)c12 [Example 167, 2-[2-(Imidazo[1,2-a]pyridin-2-yl)ethyl]-8-(3-methoxypyridin-4-yl)phthalazin-1(2H)-one]	200 to 500 nM
O=c1c2c(-c3cncnc3)cccc2cnn1CCc1cn2ccccc2n1 [Example 168, 2-[2-(Imidazo[1,2-a]pyridin-2-yl)ethyl]-8-(pyrimidin-5-yl)phthalazin-1(2H)-one]	< 100 nM
Cn1ccc(-c2cccc3cnn(CCc4cn5ccccc5n4)c(=O)c23)n1 [Example 169, 2-[2-(Imidazo[1,2-a]pyridin-2-yl)ethyl]-8-(1-methyl-1H-pyrazol-3-yl)phthalazin-1(2H)-one]	200 to 500 nM
O=c1c2c(-c3ccoc3)cccc2cnn1CCc1cn2ccccc2n1 [Example 170, 8-(Furan-3-yl)-2-[2-(Imidazo[1,2-a]pyridin-2-yl)ethyl]phthalazin-1(2H)-one]	< 100 nM
O=C1Cc2ccc(-c3cccc4cnn(CCc5cn6ccccc6n5)c(=O)c34)cc2N1 [Example 171, 2-[2-(Imidazo[1,2-a]pyridin-2-yl)ethyl]-8-(2-oxo-2,3-dihydro-1H-indol-6-yl)phthalazin-1(2H)-one]	< 100 nM
O=c1c2c(N3CCS(=O)(=O)CC3)cccc2cnn1CCc1ccc2ccccc2n1 [Example 173, 8-(1,1-Dioxidothiomorpholin-4-yl)-2-[2-(quinolin-2-yl)ethyl]-phthalazin-1(2H)-one]	< 100 nM
O=c1c2c(N3CCOCC3)cccc2cnn1CCc1cn2ccccc2n1 [Example 174, 2-[2-(Imidazo[1,2-a]pyridin-2-yl)ethyl]-8-(morpholin-4-yl)phthalazin-1(2H)-one]	< 100 nM
O=c1c2c(N3CCS(=O)(=O)CC3)cccc2cnn1CCc1cn2ccccc2n1 [Example 175, 8-(1,1-Dioxidothiomorpholin-4-yl)-2-[2-(imidazo[1,2-a]pyridin-2-yl)ethyl]phthalazin-1(2H)-one]	100 to 200 nM
O=c1c2c(N3CC4COCC4C3)cccc2cnn1CCc1cn2ccccc2n1 (centres unmarked) [Example 176, 2-[2-(Imidazo[1,2-a]pyridin-2-yl)ethyl]-8-(tetrahydro-1H-furo[3,4-c]pyrrol-5(3H)-yl)phthalazin-1(2H)-one hydrochloride]	< 100 nM
O=c1c2c(N3CCC(F)(F)CC3)cccc2cnn1CCc1cn2ccccc2n1 [Example 179, 8-(4,4-Difluoropiperidin-1-yl)-2-[2-(imidazo[1,2-a]pyridin-2-yl)ethyl]phthalazin-1(2H)-one]	100 to 200 nM
O=c1c2c(N3CCCCC3)cccc2cnn1CCc1cn2ccccc2n1 [Example 181, 2-[2-(Imidazo[1,2-a]pyridin-2-yl)ethyl]-8-(piperidin-1-yl)phthalazin-1(2H)-one hydrochloride]	200 to 500 nM
O=c1c2c(N3CCCOCC3)cccc2cnn1CCc1cn2ccccc2n1 [Example 190, 2-[2-(Imidazo[1,2-a]pyridin-2-yl)ethyl]-8-(1,4-oxazepan-4-yl)phthalazin-1(2H)-one hydrochloride]	100 to 200 nM
CC(C)(C)OC(=O)N1CC=C(c2cccc3cnn(CCc4cn5ccccc5n4)c(=O)c23)CC1 [Example 191, tert-Butyl 4-{3-[2-(imidazo[1,2-a]pyridin-2-yl)ethyl]-4-oxo-3,4-dihydrophthalazin-5-yl}-3,6-dihydropyridine-1(2H)-carboxylate]	200 to 500 nM
O=c1c2cccc(-c3ccncc3)c2cnn1CCc1ccc2ccccc2n1 [Example 192, 5-(Pyridin-4-yl)-2-[2-(quinolin-2-yl)ethyl]phthalazin-1(2H)-one hydrochloride]	< 100 nM
O=c1c2cccc(-c3cncnc3)c2cnn1CCc1ccc2ccccc2n1 [Example 193, 5-(Pyrimidin-5-yl)-2-[2-(quinolin-2-yl)ethyl]phthalazin-1(2H)-one hydrochloride]	< 100 nM
Cn1nccc1-c1cccc2c(=O)n(CCc3ccc4ccccc4n3)ncc12 [Example 194, 5-(1-Methyl-1H-pyrazol-5-yl)-2-[2-(quinolin-2-yl)ethyl]phthalazin-1(2H)-one]	< 100 nM
O=c1c2cccc(N3CCS(=O)(=O)CC3)c2cnn1CCc1ccc2ccccc2n1 [Example 195, 5-(1,1-Dioxidothiomorpholin-4-yl)-2-[2-(quinolin-2-yl)ethyl]phthalazin-1(2H)-one]	100 to 200 nM
O=c1c2cccc(-c3cccnc3)c2cnn1CCc1cn2ccccc2n1 [Example 196, 2-[2-(Imidazo[1,2-a]pyridin-2-yl)ethyl]-5-(pyridin-3-yl)phthalazin-1(2H)-one]	< 100 nM
O=c1c2cccc(-c3cncnc3)c2cnn1CCc1cn2ccccc2n1 [Example 197, 2-[2-(Imidazo[1,2-a]pyridin-2-yl)ethyl]-5-(pyrimidin-5-yl)phthalazin-1(2H)-on]	< 100 nM
O=c1c2cccc(N3CCOCC3)c2cnn1CCc1cn2ccccc2n1 [Example 198, 2-[2-(Imidazo[1,2-a]pyridin-2-yl)ethyl]-5-(morpholin-4-yl)phthalazin-1(2H)-one hydrochloride]	< 100 nM
O=c1c2cccc(N3CC4COCC4C3)c2cnn1CCc1cn2ccccc2n1 (centres unmarked) [Example 199, 2-[2-(Imidazo[1,2-a]pyridin-2-yl)ethyl]-5-(tetrahydro-1H-furo[3,4-c]pyrrol-5(3H)-yl)phthalazin-1(2H)-one hydrochloride]	< 100 nM
O=c1c2ccccc2c(-c2cncnc2)nn1CCc1cn2ccccc2n1 [Example 200, 2-[2-(Imidazo[1,2-a]pyridin-2-yl)ethyl]-4-(pyrimidin-5-yl)phthalazin-1(2H)-one]	< 100 nM
O=c1c2ccccc2c(N2CCOCC2)nn1CCc1cn2ccccc2n1 [Example 201, 2-[2-(Imidazo[1,2-a]pyridin-2-yl)ethyl]-4-(morpholin-4-yl)phthalazin-1(2H)-one]	200 to 500 nM
O=c1c2c(-c3ccncc3O)csc2ccn1CCc1ccc2ccccc2n1 [Example 203, 3-(3-Hydroxypyridin-4-yl)-5-[2-(quinolin-2-yl)ethyl]thieno[3,2-c]pyridin-4(5H)-one hydrochloride]	200 to 500 nM
Cn1nccc1-c1csc2ccn(CCc3ccc4ccccc4n3)c(=O)c12 [Example 204, 3-(1-Methyl-1H-pyrazol-5-yl)-5-[2-(quinolin-2-yl)ethyl]thieno[3,2-c]pyridin-4(5)H-one hydrochloride]	< 100 nM
O=c1c2c(C3=CCNCC3)csc2ccn1CCc1ccc2ccccc2n1 [Example 213, 5-(2-(Quinolin-2-yl)ethyl)-3-(1,2,3,6-tetrahydropyridin-4-yl)thieno[3,2-c]pyridin-4(5H)-one hydrochloride]	200 to 500 nM

Now from value to compound:

IC50	Structure (SMILES)
< 100 nM	O=c1c2c(-c3ccncc3)csc2ccn1CCc1ccc2ccccc2n1 [Example 205, 3-(Pyridin-4-yl)-5-[2-(quinolin-2-yl)ethyl]thieno[3,2-c]pyridin-4(5H)-one hydrochloride]
< 100 nM	O=c1c2c(-c3cncnc3)csc2ccn1CCc1ccc2ccccc2n1 [Example 206]
< 100 nM	O=C1Cc2ccc(-c3csc4ccn(CCc5ccc6ccccc6n5)c(=O)c34)cc2N1 [Example 207, 3-(2-Oxoindolin-6-yl)-5-[2-(quinolin-2-yl)ethyl]thieno[3,2-c]pyridin-4(5H)-one]
< 100 nM	O=c1c2c(-c3cccc(O)c3)csc2ccn1CCc1ccc2ccccc2n1 [Example 208, 3-(3-Hydroxyphenyl)-5-[2-(quinolin-2-yl)ethyl]thieno[3,2-c]pyridin-4(5H)-one hydrochloride]
200 to 500 nM	CCc1ccc(CCn2ccc3scc(-c4ccncc4)c3c2=O)nc1 [Example 209, 5-[2-(5-Ethylpyridin-2-yl)ethyl]-3-(pyridin-4-yl)thieno[3,2-c]pyridin-4(5H)-one hydrochloride]
< 100 nM	O=c1c2c(-c3ccncc3)csc2ccn1CCc1cn2ccccc2n1 [Example 210, 5-[2-(Imidazo[1,2-a]pyridin-2-yl)ethyl]-3-(pyridin-4-yl)thieno[3,2-c]pyridin-4(5H)-one hydrochloride]
200 to 500 nM	O=c1c2c(N3CCOCC3)csc2ccn1CCc1ccc2ccccc2n1 [Example 211, 3-(Morpholin-4-yl)-5-[2-(quinolin-2-yl)ethyl]thieno[3,2-c]pyridin-4(5H)-one hydrochloride]
100 to 200 nM	O=c1c2c(C3CCNCC3)csc2ccn1CCc1ccc2ccccc2n1 [Example 215, 3-(Piperidin-4-yl)-5-[2-(quinolin-2-yl)ethyl]thieno[3,2-c]pyridin-4(5H)-one trifluoroacetate]
< 100 nM	Cc1csc2c(-c3ccncc3)cn(CCc3ccc4ccccc4n3)c(=O)c12 [Example 216, 3-Methyl-7-(pyridin-4-yl)-5-(2-(quinolin-2-yl)ethyl)thieno[3,2-c]pyridin-4(5H)-one]
< 100 nM	O=c1c2c(N[C@@H]3CCNC3)cccc2cnn1CCc1cn2ccccc2n1 [Example 219, 2-[2-(Imidazo[1,2-a]pyridin-2-yl)ethyl]-8-[(3R)-pyrrolidin-3-ylamino]phthalazin-1(2H)-one dihydrochloride]
< 100 nM	O=c1c2c(-c3ccncc3)cccc2ccn1/C=C/c1ccc2ccccc2n1 [Example 221, (E)-8-(Pyridin-4-yl)-2-(2-(quinolin-2-yl)vinyl)isoquinolin-1(2H)-one]
< 100 nM	O=c1c2c(-c3ccncc3)cccc2ccn1CCc1ccc2ccccc2n1 [Example 223, 8-(Pyridin-4-yl)-2-(2-quinolin-2-yl-ethyl)isoquinolin-1(2H)-one]
< 100 nM	O=c1c2c(-c3ccncc3)cccc2cnn1/C=C/c1ccc2ccccc2n1 [Example 225]
< 100 nM	O=c1c2c(-c3ccncc3)coc2ccn1CCc1ccc2ccccc2n1 [Example 228, 3-(Pyridin-4-yl)-5-(2-(quinolin-2-yl)ethyl)furo[3,2-c]pyridin-4(5H)-one hydrochloride]
< 100 nM	O=c1c2c(-c3ccncc3)coc2ccn1CCc1nc2ccccc2[nH]1 [Example 229, 5-(2-(1H-Benzo[d]imidazol-2-yl)ethyl)-3-(pyridin-4-yl)furo[3,2-c]pyridin-4(5H)-one hydrochloride]
